Assay [1] has as its target T1, FGFr (human FGF-1 (flg) receptor tyrosine kinase) (Homo sapiens, UniProt P11362).
T1 construct: PCR primers are designed to amplify a fragment of DNA that codes for the intracellular tyrosine kinase domain; made in house; host or cells: Sf9 insect cells (baculovirus), cell lysate
Nature of the assay: FGFr tyrosine kinase assay, 32P incorporation into glutamate-tyrosine copolymer. Type of assay: biochemical. As to the method:
Platelet Derived Growth Factor Receptor (PDGFr) and Fibroblast Growth Factor Receptor (FGFr). Full length cDNAs for the mouse PDGF-β and human FGF-1 (flg) receptor tyrosine kinases were obtained from J. Escobedo and are prepared as described in J. Biol. Chem., 1991;262:1482-1487. PCR primers are designed to amplify a fragment of DNA that codes for the intracellular tyrosine kinase domain. The fragment is melded into a baculovirus vector, cotransfected with AcMNPV DNA, and the recombinant virus isolated. SF9 insect cells are infected with the virus to overexpress the protein, and the cell lysate is used for the assay.
PDGFr and FGFr. […] Briefly, to each well is added 82.5 μL of incubation buffer containing 25 mM Hepes (pH 7.0), 150 mM NaCl, 0.1% Triton X-100, 0.2 mM PMSF, 0.2 mM sodium vanadate, 10 mM manganese chloride, and 750 μg/mL of poly (4:1) glutamate-tyrosine followed by 2.5 μL of inhibitor and 5 μL of enzyme lysate (7.5 μg/μL FGFR-TK or 6.0 μg/μL PDGFR-TK) to initiate the reaction. Following a 10 minute incubation at 25° C., 10 μL of [γ^32 P]ATP (0.4 μCi plus 50 μM ATP) is added to each well, and samples are incubated for an additional 10 minutes at 25° C. The reaction is terminated by the addition of 100 μL of 30% trichloroacetic acid (TCA) containing 20 mM sodium pyrophosphate and precipitation of material onto glass fiber filter mats (Wallac). […] Nonspecific activity is defined as radioactivity retained on the filters following incubation of samples with buffer alone; (no enzyme). Specific enzymatic activity is defined as total activity (enzyme plus buffer) minus nonspecific activity.

The target of assay [2] is MAP Kinase Pathway (GST-MEK / GST-MAPK). Description: Cascade Assay for Inhibitors of the MAP Kinase Pathway (APK Assay). Type of assay: biochemical. The note with it: 50 μM [γ32P]ATP; compounds assessed at 10 μM. As to the method: Cascade Assay for Inhibitors of the MAP Kinase Pathway (APK Assay)
Incorporation of ^32 P into myelin basic protein (MBP) is assayed in the presence of a glutathione; S-transferase fusion protein containing p44MAP kinase (GST-MAPK) and a glutathione; S-transferase fusion protein containing p45MEK (GST-MEK). The assay solution contains 20 mM HEPES, pH 7.4, 10 mM magnesium chloride, 1 mM manganese chloride, 1 mM EGTA, 50 μM [γ^32 P]ATP, 10 μg GST-MEK, 0.5 μg GST-MAPK and 40 μg MBP in a final volume of 100 μL. Reactions are stopped after 20 minutes by addition of trichloroacetic acid and filtered through a GF/C filter mat. ^32 P retained on the filter mat is determined using a 1205 betaplate. Compounds are assessed at 10 μM for ability to inhibit incorporation of ^32 P.
To ascertain whether compounds are inhibiting GST-MEK or GST MAPK, two additional protocols are employed. In the first protocol, compounds are added to tubes containing GST-MEK, followed by addition of GST-MAPK, MBP and [γ^32 P]ATP. In the second protocol, compounds are added to tubes containing both GST-MEK and GST-MAPK, followed by MBP and [γ^32 P]ATP.
Compounds that show activity in both protocols are scored as MAPK inhibitors, while compounds showing activity in only the first protocol are scored as MEK inhibitors.

This is an account of results in patent publication US6150359A, “Naphthyridinones for inhibiting protein tyrosine kinase and cell cycle kinase mediated cellular proliferation” (Warner-Lambert Company, priority 2000, dated 2000).

By IC50 is commonly meant the midpoint of a concentration-inhibition curve. Low values mean higher potency, high ones lower potency.

The structures appear in SMILES notation. A value given as a limit tells only on which side of the number the result lay.

T1 sequence (P11362 478-767 limits assumed): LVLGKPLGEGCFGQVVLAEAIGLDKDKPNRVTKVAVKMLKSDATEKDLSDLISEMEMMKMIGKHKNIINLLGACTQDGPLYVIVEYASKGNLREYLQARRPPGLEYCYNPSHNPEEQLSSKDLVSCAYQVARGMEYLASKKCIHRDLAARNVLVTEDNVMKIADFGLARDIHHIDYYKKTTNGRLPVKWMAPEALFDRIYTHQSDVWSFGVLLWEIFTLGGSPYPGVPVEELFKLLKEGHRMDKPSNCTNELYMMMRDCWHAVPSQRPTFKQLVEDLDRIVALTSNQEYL

With `CCN(CC)CCCCNc1cc2c(cn1)cc(-c1c(Cl)cccc1Cl)c(=O)n2C` [Example F, 3-(2,6-dichlorophenyl)-7-[4-(diethylamino)butylamino]-1-methyl-1H-[1,6]naphthyridin-2-one], the figures for the IC50 in assay [1] and in assay [2] were 70 nM and greater than 10000 nM, respectively.
`CN1CCN(CCCNc2cc3c(cn2)cc(-c2c(Cl)cccc2Cl)c(=O)n3C)CC1` [Example H, 3-(2,6-dichlorophenyl)-1-methyl-7-[3-(4-methylpiperazin-1-yl)propylamino]-1H-[1,6]naphthyridin-2-one]: the half-maximal inhibitory concentration (IC50) in assay [1] came out at 50 nM; in assay [2], 10000 nM.
